Literature values in patent US20050154016A1, “Preventives for hiv infection” (priority 2002, published 2005).

Test system: R5 HIV-1
Conditions: reported in non-patent document 18

For `Cc1ccc(-c2ccc3c(c2)C=C(C(=O)Nc2ccc(C[N+](C)(C)C4CCOCC4)cc2)CCC3)cc1.[Cl-]` [TAK-779], which “inhibitory effect against HIV-1 infection caused by R5 HIV-1” value is on record?
The value was “exhibits an inhibitory effect”.
